The values that follow come from patent US6864286B2, “Inhibitors of the EGF-receptor tyrosine kinase and methods for their use” (Parker Hughes Institute, priority 1998, dated 2005).

Usually IC50 stands for the concentration at which inhibition is half-maximal. One may read the inhibition as the change of the read-out against control, counted positive when it falls. High values mean a strong effect, low ones a weak effect.

Where two headings read alike, the source gives them in different places. Bounds are passed on as bounds.

Experiment [1] relates to MDA-MB-231 cells. Description: MTT cytotoxicity assay, MDA-MB-231. It is filed as cell-based. Particulars: Homo sapiens, 36 hours, read-out: Cancer Cell Cytotoxicity IC50 MDA-MB-231. Here is the method:
(§1) In order to determine the cytotoxic activity of LFM and its analogs against breast cancer cells, cells in alpha-MEM supplemented with 10% (v/v) fetal calf serum were treated with various concentrations of the compounds for 24 hours at 37° C., washed twice in alpha-MEM, and then used in either MTT assays or in vitro invasion assays, as described hereinafter.
The cytotoxicity of various compounds against human breast cancer cell lines was analyzed using the MTT (3-[4,5-dimethylthiazol-2-yl]-2,5-diphenyl tetrazolium bromide) assay (Boehringer Mannheim Corp., Indianapolis, Ind.). Uckun F. M., et al. Clin. Cancer Res. 1998, 4, 901-912. Exponentially growing breast cancer cells were seeded into a 96-well plate at a density of 2.5×10^4 cells/well and incubated for 36 hours at 37° C. prior to drug exposure. On the day of treatment, culture medium was carefully aspirated from the wells and replaced with fresh medium containing the LFM analogs at concentrations ranging from 2 to 250 μM. Triplicate wells were used for each treatment. The cells were incubated with the various compounds for 36 hours at 37° C. in a humidified 5% CO2 atmosphere. To each well, 10 μl of MTT (0.5 mg/ml final concentration) was added and the plates were incubated at 37° C. for 4 hours to allow MTT to form formazan crystals by reacting with metabolically active cells. The formazan crystals were solubilized overnight at 37° C. in a solution containing 10% SDS in 0.01 M HCl. The absorbence of each well was measured in a microplate reader (Labsystems) at 540 nm and a reference wavelength of 690 nm.
To translate the absorbance A540 values into the number of live cells in each well, the A540 values were compared to those on standard A540-versus-cell number curves generated for each cell line. The percent survival was calculated using the formula: % survival=Live cell number[test]/Live cell number [control]×100. The IC50 values were calculated by non-linear regression analysis using an Graphpad Prism software version 2.0 (Graphpad Software, Inc., San Diego, Calif.).
(In general: Formazan colour is commonly taken as a measure of viable cells.)

The subject of experiment [2] is MDA-MB-231 cells. Description: In vitro clonogenic assay, MDA-MB-231. The format is cell-based, human. The conditions noted are these: 24 hour treatment; for inhibition at 0.1 µM / inhibition at 10 µM / inhibition at 100 µM: Homo sapiens. The method, then: as §1
After treatment with LFM analogs, cells were resuspended in clonogenic medium consisting of alpha-MEM supplemented with 0.9% methylcellulose, 30% fetal bovine serum, and 50 μM 2-mercaptoethanol. Cells were plated in duplicate Petri dishes at 100,000 cells/mL/dish and cultured in a humidified 5% CO2 incubator for 7 days. Cancer cell colonies were enumerated on a grid using an inverted phase microscope of high optical resolution (Uckun F. M., et al. Clin. Cancer Res. 1998, 4, 901-912; and Kuo). Results were expressed as % inhibition of clonogenic cells at a particular concentration of the test agent using the formula: % Inhibition=(1-Mean # of colonies [Test]/Mean # of colonies [Control])×100. Furthermore, the dose survival curves were constructed using the percent control survival (=Mean # of colonies[Test]/Mean # of colonies [Control]×100) results for each drug concentration as the data points and the IC50 values were calculated. The IC50 values were determined using an Prism Version II Inplot program (Graphpad Software, Inc., San Diego, Calif.).

Experiment [3] deals with MDA-MB-231 human breast cancer cells. Description: Transfilter cell invasion assay (Matrigel-coated Boyden chambers). It is filed as cell-based. Here is the method:
The chamber filters were coated with 50 μg/ml of Matrigel matrix, incubated overnight at room temperature under a laminar flow hood and stored at 4° C.
On the day of the experiment, the coated inserts were rehydrated with 0.5 ml serum-free DMEM containing 0.1% bovine serum albumin for 1-2 hours. To study the effects of LFM and LFM-A12 on invasiveness of MDA-MB-231 cells, exponentially growing cells were incubated with each compound at various concentrations ranging from 12.5 RM to 100 μM in 0.1% DMSO overnight. The cells were trypsinized, washed twice with serum-free DMEM containing BSA, counted and resuspended at 1×10^5 cells/ml.
A 0.5 ml cell suspension containing 5×10^4 cells in a serum-free DMEM containing LFM, LFM-A12, or vehicle was added to the Matrigel-coated and rehydrated filter inserts. Next, 750 μl of NIH fibroblast conditioned medium was placed as a chemoattractant in 24-well plates and the inserts were placed in wells and incubated at 37° C. for 48 hours. […] The invasive cells that migrated to the lower side of the filter were fixed, stained with Hema-3 solutions and counted under microscope. No cells were detected at the bottom of the Boyden chambers. Therefore, the number of cells on the lower side of the filters accounted for all cells that had migrated through the filter. Five (5) to ten (10) random fields per filter were counted to determine the mean (±SE) values for the invasive fraction. The invasive fractions of cells treated with LFM or LFM-A12 were compared to those of vehicle (0.1% DMSO in PBS) treated control cells and the percent inhibition of invasiveness was determined using the following formula: % Inhibition=100×(1-Invasive Fraction of Drug-Treated Cells/Invasive Fraction of Control Cells).

Setting [4] is: MDA-MB-231, migration for 48 hours, mean of two experiments, read-out: IC50 for inhibition of invasion through Matrigel matrix.

On to `CC(O)=C(C#N)C(=O)Nc1ccc(C(F)(F)F)cc1` [LFM, α-Cyano-β-hydroxy-β-methyl-N-[4-(trifluoromethyl)phenyl]-propenamide, reference compound], for which the IC50 worked out at 199 µM in the experiment on MDA-MB-231 cells [1]; 97 µM in experiment [3] (setting [4]); 97 µM in experiment [3] (MDA-MB-231, read-out: IC50 for inhibition of invasion through Matrigel matrix). The compound further had an inhibition at 0.1 µM in the experiment on MDA-MB-231 cells [2] (MDA-MB-231, 0.1 μM) of 16.2%. Further, in the experiment on MDA-MB-231 cells [2] (MDA-MB-231, 10 μM), the inhibition at 10 µM is 44.2%. The compound also showed an inhibition at 100 µM in the experiment on MDA-MB-231 cells [2] (MDA-MB-231, 100 μM) of 74.2%. The “Tumor Cell Colonies/10^5 Cells” value in the experiment on MDA-MB-231 cells [2] (MDA-MB-231, 0.1 μM) was 964; in the experiment on MDA-MB-231 cells [2] (MDA-MB-231, 10 μM) it was 642; with MDA-MB-231 cells [2] (MDA-MB-231, 100 μM) it was 297.
`C/C(O)=C(\C#N)C(=O)Nc1ccc(OC(F)(F)F)cc1` [LFM-A12, α-Cyano-β-hydroxy-β-methyl-N-[4-(trifluoromethoxy)phenyl]-propenamide]: the IC50 in the experiment on MDA-MB-231 cells [1] came to 53.4 µM. For the same compound, in the experiment with MDA-MB-231 cells [2] (MDA-MB-231, 0.1 μM), 0.1 µM produced 42% inhibition and the “Tumor Cell Colonies/10^5 Cells” value is reported as 667. In the experiment on MDA-MB-231 cells [2] (MDA-MB-231, 10 μM), 10 µM produced 55.2% inhibition and the “Tumor Cell Colonies/10^5 Cells” value is on record as 515. In the experiment on MDA-MB-231 cells [2] (MDA-MB-231, 100 μM), the inhibition at 100 µM is greater than 99% and the “Tumor Cell Colonies/10^5 Cells” value is given as 0. Also, the “% Inhibition of clonogenic cells” value with MDA-MB-231 cells [2] (MDA-MB-231, 100 μM, 100 µM) is reported as greater than 99%. Also, the IC50 in experiment [3] (setting [4]) amounted to 28.4 µM.
